Data on four compounds can be found in article PMC11013662, “New Thiosemicarbazide Derivatives with Multidirectional Biological Action” (Molecules, 2024).

One may read the LC50 as the concentration that kills 50% of the test population. In general, MBC refers to the smallest concentration meeting the test's criterion for killing. A higher MBC goes with less potent killing. Broadly, the MIC is the lowest concentration that inhibits growth of the organism. In general, IC50 refers to the concentration needed to halve the response being measured.

≈ marks a conversion by molar mass, not a printed value. Like-named read-outs stand apart in the source and are kept apart here.

The test system of one data set is Rhabditis sp. More on the design: method as in PMID 35408557. Particulars: reference drug; cited from earlier work.
In data set [1] the test system is Staphylococcus aureus ATCC 25923. Nature of the data set: Broth microdilution MIC / MBC. It counts as cell-based. Here is the method:
(§1) The microdilution method was used to determine the MIC values of newly synthesized compounds. The antimicrobial activity of the thiosemicarbazides series was tested on ten reference bacterial strains purchased from the American Type Culture Collection (ATCC). Seven Gram-positive reference strains (S. aureus ATCC 29213, S. aureus ATCC 43300, S. aureus ATCC 6538, S. aureus ATCC 25923, S. epidermidis ATCC 12228, M. luteus ATCC 10240, and B. cereus ATCC 10876) and three Gram-negative reference bacteria (K. pneumoniae ATCC 13883, E. coli ATCC 25922, S. typhimurium ATCC 14028) were used. These bacterial strains are representatives of microorganisms that can cause the most common opportunistic infections among humans. The bacteria were grown on Mueller–Hinton agar (MHA) plates before examination. To perform the assay, all bacteria were placed in sterile saline (0.85% NaCl) to obtain a suspension of the optical density of the 0.5 McFarland standard (1.50 × 10^8 colony-forming units (CFUs)/mL). A solution of the tested compounds was prepared in dimethyl sulfoxide (DMSO) at a concentration of 50 mg/mL as a stock solution.
(§2) A 96-well microtiter plate and microbroth two-fold dilution method was used to determine the minimum inhibitory concentration (MIC) according to the EUCAST (European Committee on Antimicrobial Susceptibility Testing) reference recommendation. The solutions were then diluted with Mueller–Hinton broth (MHB, Biomaxima, Lublin, Poland) medium to obtain a solution with a basic concentration of 1000 µg/mL. Then, using the two-fold dilution method with MHB, the tested compounds were introduced into the wells of the microplate to provide a final concentration in the range of 0.49 to 1000 µg/mL. Then, 2 μL of bacterial inoculum with a density of 0.5 McFarland standard was added into each well. Each well was filled with a total volume of 100 μL. Then, microtiter plates were incubated for 18 ± 2 h at 35 °C. After incubation, the growth of bacteria was monitored by a Biotek ELx800 (Biokom, Janki, Poland) spectrophotometer at 600 nm (OD600). The MIC assays were performed in triplicate.
(§3) A negative control with MHB and without tested compounds was used. Clinically used anti-bacterial agents, cefuroxime and vancomycin, were included as positive controls for the purpose of comparison in a concentration range from 0.007 to 15.625 µg/mL.
(§4) The in vitro antimicrobial activity of the tested compounds was determined by the MIC, which was defined as the lowest concentration of the compound tested at which no visible growth of the test bacteria was observed. The MBC (the minimum bactericidal concentration) is defined as the lowest concentration of antimicrobial agent resulting in reduction in the viability of the initial bacterial inoculum by ≥99.9% on the plate. Generally, an MBC/MIC ratio less than 4 is considered bactericidal for an antimicrobial, and an MBC/MIC > 8 is indicative of bacteriostatic activity. For the MBC test, the Mueller–Hinton agar (MHA, Biomaxima, Poland) plate assay was used. MBC was determined after the broth dilution period of an MIC test has been completed. After the MIC detection, 5 µL aliquots from each well were plated on an MHA plate and grown at 35 °C overnight. The MBC values were determined by observing the first clear area on the agar plate that has no observable bacterial growth.
On the technique in general: Broth dilution looks for growth in wells or tubes with falling amounts of substance.

For data set [2], the system named is Staphylococcus aureus ATCC 43300. Nature of the data set: Broth microdilution MIC / MBC. The class given is cell-based. As to conditions: ATCC 43300 / MRSA. How it is done:
as §1, §2, §3, §4

Data set [3] relates to Bacillus cereus ATCC 10876. Nature of the data set: Broth microdilution MIC / MBC. It counts as cell-based. Particulars: ATCC10876, B. cereus ATCC 10876. Here is the method:
as §1, §2, §3, §4

In data set [4] the test system is Micrococcus luteus ATCC 10240. The experiment in a line: Broth microdilution MIC / MBC. It counts as cell-based. Particulars: ATCC10240, M. luteus ATCC 10240. Here is the method:
as §1, §2, §3, §4

For data set [5], the system named is Staphylococcus aureus ATCC 6538. The experiment in a line: Broth microdilution MIC / MBC. As to conditions: ATCC6538, S. aureus ATCC 6538. The class given is cell-based. How it is done:
as §1, §2, §3, §4

Data set [6] deals with Staphylococcus epidermidis ATCC 12228. Nature of the data set: Broth microdilution MIC / MBC. It counts as cell-based. Particulars: ATCC12228, S. epidermidis ATCC 12228. How it is done:
as §1, §2, §3, §4

For data set [7], the system named is SW 620 human metastatic colon cancer cells. The experiment in a line: MTT cytotoxicity assay. Particulars: Homo sapiens; SW 620, MTT, 72 h. The class given is cell-based. How it is done:
Both lines were obtained from American Type Culture Collection (ATCC, Rockville, MD, USA). The culture used to grow the SW 620 cells was prepared in MEM (ThermoSci, Waltham, MA, USA). The V79 cells were cultured in RPMI (Biowest SAS, Nuaillé, France) with the addition of 20 mM HEPES (Biowest, Nuaillé, France), 10% fetal bovine serum (FBS, Sigma-Aldrich, St. Louis, MO, USA), 100 µg/mL of streptomycin, and 100 U/mL of penicillin (Gibco, Grand Island, NY, USA). […] The MTT assay was used to establish the cytotoxic activity of the studied compounds. […] The process starts with the preparation of 96-well plates by placing cells at a density of 1 × 10^4 per well and incubating them for 24 h to adhere. […] Next, cells were incubated for 72 h at 37 °C with a 5% CO2. Then, a solution of MTT (0.5 mg/mL) was added to each well and plates were incubated for 4 h more in the same conditions. To dissolve precipitated formazan crystals, a mixture of DMSO and isopropanol (in a 1:1 ratio, v/v) was used. […] Cell viability was determined as the percentage of MTT reduction in the treated cells compared to the control group (unexposed cells). The relative MTT level, represented as a percentage, was calculated using the formula [A]/[B] × 100, where [A] stands for the absorbance of the treated cell sample and [B] for the absorbance of unexposed to studied compounds sample (control group).
Background: Tetrazolium assays rely on reduction of a dye to a coloured formazan, in cell work by metabolically active cells.

Data set [8] deals with V79 Chinese hamster lung cells. Nature of the data set: MTT cytotoxicity assay. As to conditions: Cricetulus griseus, V 79 normal cells, 72 h. It counts as cell-based. How it is done:
Both lines were obtained from American Type Culture Collection (ATCC, Rockville, MD, USA). The culture used to grow the SW 620 cells was prepared in MEM (ThermoSci, Waltham, MA, USA). The V79 cells were cultured in RPMI (Biowest SAS, Nuaillé, France) with the addition of 20 mM HEPES (Biowest, Nuaillé, France), 10% fetal bovine serum (FBS, Sigma-Aldrich, St. Louis, MO, USA), 100 µg/mL of streptomycin, and 100 U/mL of penicillin (Gibco, Grand Island, NY, USA). The eligible level of cells confluence was 80–90%, and both cell cultures were maintained in a humidified incubator set at 37 °C with 5% CO2 until they reached it.
The MTT assay was used to establish the cytotoxic activity of the studied compounds. The mechanism of this method relies on enzymatic conversion of 3-(4,5-dimethylthiazol-2-yl)-2,5-diphentyltetrazolium bromide salt (MTT) into insoluble formazan crystals by mitochondrial dehydrogenases within viable cells.
The process starts with the preparation of 96-well plates by placing cells at a density of 1 × 10^4 per well and incubating them for 24 h to adhere. Afterwards, the cells were treated with different concentrations of thiosemicarbazide derivatives, from 20 to 100 µM, except the control group which remained not exposed. Next, cells were incubated for 72 h at 37 °C with a 5% CO2. Then, a solution of MTT (0.5 mg/mL) was added to each well and plates were incubated for 4 h more in the same conditions.
To dissolve precipitated formazan crystals, a mixture of DMSO and isopropanol (in a 1:1 ratio, v/v) was used. For the spectrophotometric survey, we used MultiscanGo from Thermo Scientific with the wavelength value set at 570 nm to measure absorbance.
Cell viability was determined as the percentage of MTT reduction in the treated cells compared to the control group (unexposed cells). The relative MTT level, represented as a percentage, was calculated using the formula [A]/[B] × 100, where [A] stands for the absorbance of the treated cell sample and [B] for the absorbance of unexposed to studied compounds sample (control group). […] To calculate IC50 values (concentration at which 50% of cell viability is inhibited), we used GraphPad Prism 8.0.1 software.

As to `CCCSc1ccc2nc(NC(=O)OC)[nH]c2c1` [albendazole], the median lethal concentration (LC50) in the data set with Rhabditis sp. is 19200 mg/L (≈ 72500 µM).
In [1] (ATCC25923), `CN[C@H](CC(C)C)C(=O)N[C@H]1C(=O)N[C@@H](CC(N)=O)C(=O)N[C@H]2C(=O)N[C@H]3C(=O)N[C@H](C(=O)N[C@H](C(=O)O)c4cc(O)cc(O)c4-c4cc3ccc4O)[C@H](O)c3ccc(c(Cl)c3)Oc3cc2cc(c3O[C@@H]2O[C@H](CO)[C@@H](O)[C@H](O)[C@H]2O[C@H]2C[C@](C)(N)[C@H](O)[C@H](C)O2)Oc2ccc(cc2Cl)[C@H]1O` [Van, vancomycin, reference compound] returned an MBC of 2 mg/L (≈ 1.38 µM) and an MIC of 2 mg/L (≈ 1.38 µM). In [2], the MBC worked out at 2 mg/L (≈ 1.38 µM) and the lowest concentration to inhibit growth (MIC) was 2 mg/L (≈ 1.38 µM).
Regarding `CO/N=C(\C(=O)N[C@@H]1C(=O)N2C(C(=O)O)=C(COC(N)=O)CS[C@H]12)c1ccco1` [Cef, cefuroxime, reference compound], the minimum inhibitory concentration (MIC) was determined as 31.2 mg/L (≈ 73.6 µM) in data set [3]; 0.25 mg/L (≈ 0.589 µM) in data set [4]; 0.49 mg/L (≈ 1.15 µM) in data set [1] (ATCC25923, S. aureus ATCC 25923, read-out: MIC); 0.98 mg/L (≈ 2.31 µM) in data set [5]; 0.25 mg/L (≈ 0.589 µM) in data set [6].
For the compound `COc1cccc2c1C(=O)c1c(O)c3c(c(O)c1C2=O)C[C@@](O)(C(=O)CO)C[C@@H]3O[C@H]1C[C@H](N)[C@H](O)[C@H](C)O1` [Ref, Doxorubicin, reference compound], the IC50 came to 1.83 ± 0.1 µM in data set [7] and 0.46 ± 0.03 µM in [8].
